The experiment concerns SK-MEL-28 cells (B-RAF V600E mutated). The experiment is described as follows: Inhibition of the proliferation of cultivated human melanoma cells (SK-MEL-28), AlamarBlue. It is filed as cell-based. As to conditions: SK-MEL-28 melanoma cells, 72 h incubation. As to the method: Measurement of the Inhibition of the Proliferation of Cultivated Human Melanoma Cells (SK-MEL-28, B-RAF^V600E mutated)
For measuring the proliferation of cultivated human tumour cells, cells of the melanoma cell line SK-MEL-28 [from American Type Culture Collection (ATCC)] are cultivated in MEM medium, supplemented with 10% foetal calf serum, 2% sodium bicarbonate, 1 mM sodium pyruvate, 1% non-essential amino acids (e.g. from Cambrex, # BE13-114E) and 2 mM glutamine. SK-MEL-28 cells are placed in 96-well flat bottomed dishes in a density of 2500 cells per well in supplemented MEM medium (see above) and incubated overnight in an incubator (at 37° C. and 5% CO2). The active substances are added to the cells in different concentrations, so that a concentration range of 50 μM to 3.2 nM is covered. If necessary the initial concentration of 50 μM is changed to 10 μM or 2 μM and further dilution is carried out accordingly (up to 0.6 nM or 0.12 nM). After an incubation period of a further 72 h 20 μL AlamarBlue reagent (Serotec Ltd., # BUF012B) are added to each well and the cells are incubated for a further 3-6 h. The colour change of the AlamarBlue reagent is determined in a fluorescence spectrophotometer (e.g. Gemini, Molecular Devices). EC50 values are calculated using a software program (GraphPadPrizm).
A general note: Resazurin is reduced to fluorescent resorufin, in cell work by metabolically active cells.

Structures are written as SMILES.

One may read the EC50 as the concentration needed to bring the measured effect to its halfway point. Read a low EC50 as higher potency in that assay. Compound `CCCS(=O)(=O)Nc1ccc(F)c(Nc2ncnc3cnc(-n4cnc(C)c4)nc23)c1F` [Example I-1] had an EC50 (Homo sapiens, SK-MEL-28, 72 h) of 276 nM.

`CCCS(=O)(=O)Nc1ccc(F)c(Nc2ncnc3cnc(N4CCOCC4)nc23)c1F` [Example I-2] returned an EC50 (Homo sapiens, SK-MEL-28, 72 h) of 514 nM.

On to `CCCS(=O)(=O)Nc1ccc(F)c(Nc2ncnc3cnc(N4CCN(CCOC)CC4)nc23)c1F` [Example I-3], for which the EC50 (Homo sapiens, SK-MEL-28, 72 h) was 1190 nM.

For the compound `CCCS(=O)(=O)Nc1ccc(F)c(Nc2ncnc3cnc(N4CCN(C)CC4)nc23)c1F` [Example I-4], for the setting “Homo sapiens, SK-MEL-28, 72 h”, the EC50 worked out at 1480 nM.

For the setting “Homo sapiens, SK-MEL-28, 72 h”, `CCCS(=O)(=O)Nc1ccc(F)c(Nc2ncnc3cnc(NC4CCOC4)nc23)c1F` (stereo not drawn) [Example I-5] gave an EC50 of 668 nM.

Compound `CCCS(=O)(=O)Nc1ccc(F)c(Nc2ncnc3cnc(N4CCC(F)(F)C4)nc23)c1F` [Example I-6] came in with an EC50 (Homo sapiens, SK-MEL-28, 72 h) of 493 nM.

Consider `CCCS(=O)(=O)Nc1ccc(F)c(Nc2ncnc3cnc(N4CC[C@H](F)C4)nc23)c1F` [Example I-7], for which the midpoint of the response, the EC50, lay at 176 nM.

In the case of `CCCS(=O)(=O)Nc1ccc(F)c(Nc2ncnc3cnc(N4CC[C@H](F)C4)nc23)c1F` [Example I-8], the EC50 stood at 522 nM.

Under “Homo sapiens, SK-MEL-28, 72 h”, `CCCS(=O)(=O)Nc1ccc(F)c(Nc2ncnc3cnc(N4CCN(CCN5CCOCC5)CC4)nc23)c1F` [Example I-9] yielded an EC50 of 1140 nM.

Where the note is “Homo sapiens, SK-MEL-28, 72 h”, `CCCS(=O)(=O)Nc1ccc(F)c(Nc2ncnc3cnc(NC4CC(N5CCN(C)CC5)C4)nc23)c1F` (stereo not drawn) [Example I-10] showed an EC50 of 1270 nM.

As for `CCCS(=O)(=O)Nc1ccc(F)c(Nc2ncnc3cnc(N4CCN(C5CCN(C)CC5)CC4)nc23)c1F` [Example I-11], the EC50 (Homo sapiens, SK-MEL-28, 72 h) is 1070 nM.

Regarding `CCCS(=O)(=O)Nc1ccc(F)c(Nc2ncnc3cnc(N4CCC(CN5CCCC5)CC4)nc23)c1F` [Example I-12], the EC50 (Homo sapiens, SK-MEL-28, 72 h) stood at 952 nM.

Where the note is “Homo sapiens, SK-MEL-28, 72 h”, `CCCS(=O)(=O)Nc1ccc(F)c(Nc2ncnc3cnc(NC4CCN(C)CC4)nc23)c1F` [Example I-13] returned an EC50 of 1480 nM.

Where the note is “Homo sapiens, SK-MEL-28, 72 h”, `CCCS(=O)(=O)Nc1ccc(F)c(Nc2ncnc3cnc(N4CCC(CN(CC)CC)CC4)nc23)c1F` [Example I-14] returned an EC50 of 1670 nM.

Turning to `CCCS(=O)(=O)Nc1ccc(F)c(Nc2ncnc3cnc(N4CCN(CCN(C)C)CC4)nc23)c1F` [Example I-15], the EC50 (Homo sapiens, SK-MEL-28, 72 h) was determined as 781 nM.

As to `CCCS(=O)(=O)Nc1ccc(F)c(Nc2ncnc3cnc(N[C@H]4CC[C@H](N5CCOCC5)CC4)nc23)c1F` [Example I-16], the EC50 (Homo sapiens, SK-MEL-28, 72 h) came out at 1030 nM.

For `CCCS(=O)(=O)Nc1ccc(F)c(Nc2ncnc3cnc(NC4CCN(CCOC)CC4)nc23)c1F` [Example I-17], the EC50 (Homo sapiens, SK-MEL-28, 72 h) came out at 1600 nM.

`CCCS(=O)(=O)Nc1ccc(F)c(Nc2ncnc3cnc(N4C[C@@H](C)O[C@@H](C)C4)nc23)c1F` [Example I-18]: where the note is “Homo sapiens, SK-MEL-28, 72 h”, a half-maximal response (EC50) required 774 nM.

With `CCCS(=O)(=O)Nc1ccc(F)c(Nc2ncnc3cnc(N4CCC(CN(C)C)CC4)nc23)c1F` [Example I-19], the 50% effective concentration (EC50) (Homo sapiens, SK-MEL-28, 72 h) was 1250 nM.

On to `CCCS(=O)(=O)Nc1ccc(F)c(Nc2ncnc3cnc(N4CCC(C(C)N(C)C)CC4)nc23)c1F` (stereo not drawn) [Example I-20], for which the response (Homo sapiens, SK-MEL-28, 72 h) was half-maximal at 1590 nM (EC50).

`CCCS(=O)(=O)Nc1ccc(F)c(Nc2ncnc3cnc(N4CCC5(CCN(C)CC5)CC4)nc23)c1F` [Example I-21] returned an EC50 (Homo sapiens, SK-MEL-28, 72 h) of 440 nM.

`CCCS(=O)(=O)Nc1ccc(F)c(Nc2ncnc3cnc(N[C@H]4CCOC4)nc23)c1F` [Example I-22] had an EC50 (Homo sapiens, SK-MEL-28, 72 h) of 919 nM.

Consider `CCCS(=O)(=O)Nc1ccc(F)c(Nc2ncnc3cnc(N(C)C)nc23)c1F` [Example I-23], for which, for the setting “Homo sapiens, SK-MEL-28, 72 h”, the EC50 came out at 1630 nM.

`CCCS(=O)(=O)Nc1ccc(F)c(Nc2ncnc3cnc(-n4cncn4)nc23)c1F` [Example I-24]: the EC50 (Homo sapiens, SK-MEL-28, 72 h) stood at 1500 nM.

`CCCS(=O)(=O)Nc1ccc(F)c(Nc2ncnc3cnc(-n4cnc(C)c4C)nc23)c1F` [Example I-25] displayed an EC50 (Homo sapiens, SK-MEL-28, 72 h) of 143 nM.

Where the note is “Homo sapiens, SK-MEL-28, 72 h”, `CCCS(=O)(=O)Nc1ccc(F)c(Nc2ncnc3cnc(-n4cc(C)nc4C)nc23)c1F` [Example I-26] yielded an EC50 of 212 nM.

`CCCS(=O)(=O)Nc1ccc(F)c(Nc2ncnc3cnc(-n4ccc(C)n4)nc23)c1F` [Example I-27]: the EC50 (Homo sapiens, SK-MEL-28, 72 h) was 807 nM.

For the compound `CCCS(=O)(=O)Nc1ccc(F)c(Nc2ncnc3cnc(Nc4ccncc4)nc23)c1F` [Example I-28], the midpoint of the response (Homo sapiens, SK-MEL-28, 72 h), the EC50, lay at 424 nM.

For `CCCS(=O)(=O)Nc1ccc(F)c(Nc2ncnc3cnc(Nc4ccc(N5CCN(C)CC5)cc4)nc23)c1F` [Example I-29], the midpoint of the response (Homo sapiens, SK-MEL-28, 72 h), the EC50, lay at 526 nM.

Compound `CCCS(=O)(=O)Nc1ccc(F)c(Nc2ncnc3cnc(-n4ccnc4)nc23)c1F` [Example I-30] had an EC50 (Homo sapiens, SK-MEL-28, 72 h) of 504 nM.

`CCCS(=O)(=O)Nc1ccc(F)c(Nc2ncnc3cnc(-n4cccn4)nc23)c1F` [Example I-31] gave an EC50 (Homo sapiens, SK-MEL-28, 72 h) of 936 nM.

Under “Homo sapiens, SK-MEL-28, 72 h”, `CCCS(=O)(=O)Nc1ccc(F)c(Nc2ncnc3cnc(-n4ccnc4C)nc23)c1F` [Example I-32] gave an EC50 of 297 nM.

Where the note is “Homo sapiens, SK-MEL-28, 72 h”, `CCCS(=O)(=O)Nc1ccc(F)c(Nc2ncnc3cnc(NCCOC)nc23)c1F` [Example I-33] yielded an EC50 of 1800 nM.

The values above are taken from patent US20130023531A1, “PYRIMIDO[5,4-D]PYRIMIDYLAMINO PHENYL SULFONAMIDES AS SERINE/THREONINE KINASE INHIBITORS” (BOEHRINGER INGELHEIM INTERNATIONAL GMBH, priority 2011, published 2013).
